Laboratory results as given in ChEMBL document CHEMBL5385927, “Chemical and Antiplasmodial Investigations on Eremophila-Derived Alkaloids and Semisynthetic Ether Analogues” (J Nat Prod, 2024).

How the values were obtained:
Plasmodium falciparum [1] = experiment: Antiplasmodial activity against choloroquine-sensitive ring stage of Plasmodium falciparum 3D7 assessed as inhibition of parasite growth measured after 72 hrs by DAPI staining based analysis; format: functional, organism-based; details: 3D7, 72 h
[2] = Cytotoxicity against human HEK293 cells assessed as inhibition of cell viability measured after 66 hrs by Alamar Blue dye based fluorescence analysis; format: toxicity
[3] = Cytotoxicity against human HEK293 cells assessed as inhibition of cell viability at 80 uM measured after 66 hrs by Alamar Blue dye based fluorescence analysis; format: toxicity; details: read-out: INH
Plasmodium falciparum [4] = experiment: Antiplasmodial activity against choloroquine-sensitive ring stage of Plasmodium falciparum 3D7 assessed as inhibition of parasite growth at 40 uM measured after 72 hrs by DAPI staining based analysis; format: functional

CC(C)=CCCc1cnc2c(C)cc(OCc3cccc(Br)c3)c3c2c1CC[C@H]3C
IC50 (Plasmodium falciparum [1]): 7.2 µM
IC50 at 66 h [2]: 39.3 µM

CC(C)=CCCc1cnc2c(C)cc(OCc3ccc(Br)cc3)c3c2c1CC[C@H]3C
IC50 (Plasmodium falciparum [1]): 9.7 µM
IC50 at 66 h [2]: 40.7 µM

CC(C)=CCCc1cnc2c(C)cc(O)c3c2c1CC[C@H]3C
IC50 (Plasmodium falciparum [1]): 8.9 µM
cytotoxicity at 66 h, 80 µM [3]: 92%

C[C@H]1[C@@H](O)O[C@@H]2O[C@@]3(C)CC[C@H]4[C@H](C)CC[C@@H]1[C@@]24OO3 [ARTENIMOL]
IC50 (Plasmodium falciparum [1]): 0.021 µM

CC(C)=CCCc1cnc2c(C)cc(OCc3ccccc3-c3ccccc3)c3c2c1CC[C@H]3C
IC50 (Plasmodium falciparum [1]): 8 µM
cytotoxicity at 66 h, 80 µM [3]: 94%

CC(C)=CCCc1cnc2c(C)cc(OCc3cccc([N+](=O)[O-])c3)c3c2c1CC[C@H]3C
IC50 (Plasmodium falciparum [1]): 13.1 µM
cytotoxicity at 66 h, 80 µM [3]: 7%

CC(C)=CCCc1cnc2c(C)cc(OC3CCCC3)c3c2c1CC[C@H]3C
IC50 (Plasmodium falciparum [1]): 12.5 µM
cytotoxicity at 66 h, 80 µM [3]: 83%

CC(C)=CCCc1cnc2c(C)cc(OC3CCCCC3)c3c2c1CC[C@H]3C
inhibition at 40 µM (Plasmodium falciparum [4]): 93%
cytotoxicity at 66 h, 80 µM [3]: 23%

COc1ccc(C[C@H](N)C(=O)N[C@H]2[C@@H](O)[C@H](n3cnc4c(N(C)C)ncnc43)O[C@@H]2CO)cc1 [PUROMYCIN]
IC50 (Plasmodium falciparum [1]): 0.033 µM
IC50 at 66 h [2]: 0.49 µM

CC(C)=CCCc1cnc2c(C)cc(OCc3cc(F)ccc3F)c3c2c1CC[C@H]3C
IC50 (Plasmodium falciparum [1]): 8 µM
IC50 at 66 h [2]: 31.4 µM

CC(C)=CCCc1cnc2c(C)cc(OCc3cccc(Cl)c3)c3c2c1CC[C@H]3C
IC50 (Plasmodium falciparum [1]): 11 µM
cytotoxicity at 66 h, 80 µM [3]: 65%

C=CCOc1cc(C)c2ncc(CCC=C(C)C)c3c2c1[C@H](C)CC3
IC50 (Plasmodium falciparum [1]): 13.1 µM
cytotoxicity at 66 h, 80 µM [3]: 85%

CC(C)=CCCc1cnc2c(C)cc(O)c3c2c1[C@H](O)C[C@H]3C
inhibition at 40 µM (Plasmodium falciparum [4]): 78%
cytotoxicity at 66 h, 80 µM [3]: 14%

CC(C)=CCCc1cnc2c(C)cc(OCc3ccccc3)c3c2c1CC[C@H]3C
IC50 (Plasmodium falciparum [1]): 7.6 µM
IC50 at 66 h [2]: 30.8 µM
